In patent US10201533B2, “Substituted quinolizine derivatives useful as HIV integrase inhibitors” (priority 2013, dated 2019):
Read-outs that look alike come from different tables or passages of the source.

Test system: HIV-1 (NL4-3 strain)
Test: microbe, parasite or virus in culture
Assay type: cell-based
Conditions: MT4-GFP cells infected with HIV-1 NL4-3, IP or IC50 from 4-parameter dose response curve
[1] = 0% normal human serum (NHS), read-out: WILD TYPE CELL ASSAY Viking IP (0% NHS)
[2] = 100% normal human serum (NHS), read-out: WILD TYPE CELL ASSAY Viking IP (100% NHS)
[3] = Human immunodeficiency virus 1, NL43, 0% normal human serum (NHS), read-out: WILD TYPE CELL ASSAY Viking IP (0% NHS)
[4] = Human immunodeficiency virus 1, NL43, 100% normal human serum (NHS), read-out: WILD TYPE CELL ASSAY Viking IP (100% NHS)

Row | SMILES | IC50 [1] [nM] | IC50 [2] [nM] | IC50 [3] [nM] | IC50 [4] [nM]
1 | COCCC[C@@]1(C)C(=O)c2c(O)c(=O)c(C(=O)NCc3ccccc3F)cn2C[C@@H]1OC [Compound 89] | 2.1 | 73 |  | 
2 | C[C@@]12CCCCC[C@@]1(O)Cn1cc(C(=O)NCc3ccc(F)cc3F)c(=O)c(O)c1C2=O [Compound 99] |  |  | 3.7 | 616
3 | COCCC[C@@]1(C)C(=O)c2c(O)c(=O)c(C(=O)NCc3c(F)cc(F)cc3F)cn2C[C@@H]1OC [Compound 93] | 1.2 | 52 |  | 
4 | C[C@]12COCO[C@H]1Cn1cc(C(=O)NCc3ccc(F)cc3F)c(=O)c(O)c1C2=O [Compound 13] |  |  | 3.8 | 124
5 | COCC[C@@]1(C)C(=O)c2c(O)c(=O)c(C(=O)NCc3ccccc3F)cn2C[C@@H]1OC [Compound 66] |  |  | 2.5 | 126
6 | COC[C@@]1(C)C(=O)c2c(O)c(=O)c(C(=O)NCc3ccc(F)cc3F)cn2C[C@@H]1OC [Compound 56] |  | 342 | 3.4 | 
7 | C[C@]12CCCO[C@@H]1Cn1cc(C(=O)NCc3cccc(Cl)c3F)c(=O)c(O)c1C2=O (single isomer, unassigned) [Compound 35] |  | 337 | 0.4 | 
8 | COCC[C@]1(C)C(=O)c2c(O)c(=O)c(C(=O)NCc3c(F)cccc3F)cn2C[C@@H]1OC [Compound 72] | 2.2 | 467 |  | 
9 | COCCC[C@]1(C)C(=O)c2c(O)c(=O)c(C(=O)NCc3c(F)cc(F)cc3F)cn2C[C@@H]1OC [Compound 91] | 3.8 | 273 |  | 
10 | C[C@@]12CCCCO[C@@H]1Cn1cc(C(=O)NCc3ccc(F)cc3F)c(=O)c(O)c1C2=O (single isomer, unassigned) [Compound 40] | 1.5 | 442 |  | 
11 | C[C@]12CCCCC[C@@]1(O)Cn1cc(C(=O)NCc3ccc(F)cc3F)c(=O)c(O)c1C2=O [Compound 101] |  |  | 2.1 | 105
12 | COCC[C@]1(C)C(=O)c2c(O)c(=O)c(C(=O)NCc3ccc(F)cc3F)cn2C[C@@H]1OC [Compound 60] |  |  | 2.9 | 2230
13 | C[C@]12CCCO[C@H]1Cn1cc(C(=O)NCc3c(F)cccc3F)c(=O)c(O)c1C2=O (single isomer, unassigned) [Compound 22] |  |  | 2.7 | 251
14 | COCCC[C@]1(C)C(=O)c2c(O)c(=O)c(C(=O)NCc3ccc(F)cc3F)cn2C[C@@H]1OC [Compound 74] | 4 | 262 |  | 
15 | C[C@]12CCCC[C@@]1(O)Cn1cc(C(=O)NCc3ccc(F)c(Cl)c3)c(=O)c(O)c1C2=O [Compound 97] |  |  | 2.4 | 151
16 | COC1(C)CCn2cc(C(=O)NCc3ccc(F)cc3F)c(=O)c(O)c2C1=O (stereo not shown) [Compound 51] |  | 2200 | 3.6 | 
17 | COCC[C@@]1(C)C(=O)c2c(O)c(=O)c(C(=O)NCc3cccc(Cl)c3F)cn2C[C@@H]1OC [Compound 63] | 0.9 | 249 |  | 
18 | COC1(C)CCn2cc(C(=O)NCc3ccc(F)cc3F)c(=O)c(O)c2C1=O (stereo not shown) [Compound 52] | 3.4 | > 8400 |  | 
19 | C[C@@]12CCCO[C@@H]1Cn1cc(C(=O)NCc3c(F)cc(F)cc3F)c(=O)c(O)c1C2=O (single isomer, unassigned) [Compound 14] |  |  | 0.7 | 26
20 | COCCCO[C@]12CCCC[C@@]1(C)C(=O)c1c(O)c(=O)c(C(=O)NCc3ccc(F)cc3F)cn1C2 [Compound 117] |  |  | 2.5 | 1440
21 | COCC[C@@]1(C)C(=O)c2c(O)c(=O)c(C(=O)NCc3c(F)cccc3F)cn2C[C@@H]1OC [Compound 70] |  |  | 1.9 | 80
22 | COCCC[C@]1(C)C(=O)c2c(O)c(=O)c(C(=O)NCc3c(F)cccc3F)cn2C[C@@H]1OC [Compound 83] | 0.9 | 19 |  | 
23 | C[C@@]12CC=CCO[C@@H]1Cn1cc(C(=O)NCc3ccc(F)cc3F)c(=O)c(O)c1C2=O [Compound 48] | 1.7 | 913 |  | 
24 | COCCC[C@@]1(C)C(=O)c2c(O)c(=O)c(C(=O)NCc3cccc(Cl)c3F)cn2C[C@@H]1OC [Compound 81] | 1 | 296 |  | 
25 | COCCC[C@]1(C)C(=O)c2c(O)c(=O)c(C(=O)NCc3ccccc3F)cn2C[C@@H]1OC [Compound 86] | 1.3 | 18 |  | 
26 | C[C@@]12CCCC[C@]1(O)Cn1cc(C(=O)NCc3ccc(F)cc3F)c(=O)c(O)c1C2=O [Compound 94] |  |  | 1.8 | 282
27 | C[C@]12CCCCO[C@@H]1Cn1cc(C(=O)NCc3ccc(F)cc3F)c(=O)c(O)c1C2=O (single isomer, unassigned) [Compound 43] |  | 2000 | 3.2 | 
28 | C[C@@]12COCO[C@H]1Cn1cc(C(=O)NCc3ccc(F)cc3F)c(=O)c(O)c1C2=O [Compound 12] | 2.6 | 595 |  | 

Row | SMILES | IC50 [1] [nM] | IC50 [2] [nM] | IC50 [3] [nM] | IC50 [4] [nM]
29 | CO[C@]12CCCCC[C@@]1(C)C(=O)c1c(O)c(=O)c(C(=O)NCc3ccc(F)cc3F)cn1C2 [Compound 119] |  |  | 2.1 | 2060
30 | COCCC[C@]1(C)C(=O)c2c(O)c(=O)c(C(=O)NCc3ccccc3F)cn2C[C@@H]1OC [Compound 87] | 8 | 269 |  | 
31 | COc1ncc(CNC(=O)c2cn3c(c(O)c2=O)C(=O)[C@@]2(C)CCCO[C@H]2C3)cc1Cl (single isomer, unassigned) [Compound 32] |  |  | 8.2 | > 8400
32 | C[C@@]12CC=CCO[C@@H]1Cn1cc(C(=O)NCc3ccc(F)cc3F)c(=O)c(O)c1C2=O [Compound 47] |  | 70 | 1.3 | 
33 | C[C@]12CCCO[C@@H]1Cn1cc(C(=O)NCc3ccc(F)cc3F)c(=O)c(O)c1C2=O (racemic) [Compound 9] |  |  | 2.6 | 235
34 | COCC[C@@]1(C)C(=O)c2c(O)c(=O)c(C(=O)NCc3cccc(Cl)c3F)cn2C[C@@H]1OC [Compound 62] |  |  | 0.9 | 481
35 | COC12CCCC1(C)C(=O)c1c(O)c(=O)c(C(=O)NCc3ccc(F)cc3F)cn1C2 (stereo not shown) [Compound 105] |  |  | 3.5 | 2290
36 | CC1(O)CCn2cc(C(=O)NCc3ccc(F)cc3F)c(=O)c(O)c2C1=O (racemic) [Compound 53] |  |  | 64 | > 8400
37 | CC1(C)CCn2cc(C(=O)NCc3cc4ccccn4n3)c(=O)c(O)c2C1=O [Compound 3] |  |  | 6.5 | 
38 | C[C@]12CCCO[C@H]1Cn1cc(C(=O)NCc3cc(F)c(F)c(F)c3)c(=O)c(O)c1C2=O (single isomer, unassigned) [Compound 28] |  |  | 4.4 | > 8400
39 | COCO[C@@]12CCCC[C@]1(C)C(=O)c1c(O)c(=O)c(C(=O)NCc3ccc(F)cc3F)cn1C2 [Compound 110] |  |  | 2.1 | 140
40 | COCCO[C@]12CCCC[C@@]1(C)C(=O)c1c(O)c(=O)c(C(=O)NCc3ccc(F)cc3F)cn1C2 [Compound 115] |  |  | 1.4 | 225
41 | C[C@@]12CCCO[C@@H]1Cn1cc(C(=O)NCc3ccc(F)c(Cl)c3)c(=O)c(O)c1C2=O (single isomer, unassigned) [Compound 16] |  |  | 4.1 | 257
42 | COCCO[C@@]12CCCC[C@]1(C)C(=O)c1c(O)c(=O)c(C(=O)NCc3ccc(F)cc3F)cn1C2 [Compound 114] |  |  | 1.9 | 137
43 | C[C@@]12CCCCO[C@@H]1Cn1cc(C(=O)NCc3ccc(F)cc3F)c(=O)c(O)c1C2=O (single isomer, unassigned) [Compound 39] |  | 33 | 0.8 | 
44 | COCC[C@]1(C)C(=O)c2c(O)c(=O)c(C(=O)NCc3ccccc3F)cn2C[C@@H]1OC [Compound 69] | 1.2 | 24 |  | 
45 | Cc1nc(CNC(=O)c2cn3c(c(O)c2=O)C(=O)[C@@]2(C)CCCO[C@H]2C3)sc1C [Compound 31] |  |  | 48 | > 8400
46 | C[C@]12CCCO[C@H]1Cn1cc(C(=O)NCc3c(F)cc(F)cc3F)c(=O)c(O)c1C2=O (single isomer, unassigned) [Compound 23] |  |  | 1.5 | 1260
47 | C[C@]12CCCO[C@H]1Cn1cc(C(=O)NCc3ccc(F)c(F)c3F)c(=O)c(O)c1C2=O (single isomer, unassigned) [Compound 20] |  |  | 3.5 | 839
48 | COCCCO[C@@]12CCCC[C@]1(C)C(=O)c1c(O)c(=O)c(C(=O)NCc3ccc(F)cc3F)cn1C2 [Compound 116] |  |  | 2.3 | 256
49 | COCO[C@]12CCCC[C@@]1(C)C(=O)c1c(O)c(=O)c(C(=O)NCc3ccc(F)cc3F)cn1C2 [Compound 111] |  |  | 3 | 858
50 | C[C@@]12CCCCO[C@@H]1Cn1cc(C(=O)NCc3c(F)cc(F)cc3F)c(=O)c(O)c1C2=O (single isomer, unassigned) [Compound 41] |  | 34 | 2 | 
51 | COCCC[C@]1(C)C(=O)c2c(O)c(=O)c(C(=O)NCc3cccc(Cl)c3F)cn2C[C@@H]1OC [Compound 78] |  | 15 | 0.8 | 
52 | C[C@@]12CCCO[C@@H]1Cn1cc(C(=O)NCc3ccc(F)cc3)c(=O)c(O)c1C2=O (single isomer, unassigned) [Compound 18] |  |  | 8.7 | 315
53 | COCC[C@]1(C)C(=O)c2c(O)c(=O)c(C(=O)NCc3ccccc3F)cn2C[C@@H]1OC [Compound 68] |  | 604 | 1.8 | 
54 | Cc1cc(CNC(=O)c2cn3c(c(O)c2=O)C(=O)[C@@]2(C)CCCO[C@H]2C3)ccc1F (single isomer, unassigned) [Compound 24] |  |  | 4.3 | > 8400
55 | COCC[C@]1(C)C(=O)c2c(O)c(=O)c(C(=O)NCc3cccc(Cl)c3F)cn2C[C@@H]1OC [Compound 65] | 0.8 | 34 |  | 
